In ChEMBL document CHEMBL3286254, “Structure-guided discovery of 1,3,5 tri-substituted benzenes as potent and selective matriptase inhibitors exhibiting in vivo antitumor efficacy” (Bioorg Med Chem, 2014):
Converted amounts (≈) assume the structure as drawn.

How the values were obtained:
[1] = Metabolic stability in rat liver microsomes assessed as compound remaining after 20 mins; assay type: ADME; details: read-out: Stability
Cytochrome P450 2C9 = Cytochrome P450 2C9 (Homo sapiens, UniProt P11712); experiment: Inhibition of CYP2C9 (unknown origin); assay type: ADME
DU-145 [2] = experiment: Cytotoxicity against human DU145 cells assessed as inhibition of number of colonies formed in soft agar measured on day 8; assay type: functional, cell-based; details: DU-145, 192 h
[3] = Terminal half life in NMRI mouse at 1 mg/kg, sc; details: in vivo, read-out: beta t1/2 (converted)
[4] = Metabolic stability in mouse liver microsomes assessed as compound remaining after 20 mins; assay type: ADME; details: read-out: Stability
Cytochrome P450 2C19 = Cytochrome P450 2C19 (Homo sapiens, UniProt P33261); experiment: Inhibition of CYP2C19 (unknown origin); assay type: ADME
[5] = Cytotoxicity against human LNCaP-C42B4 cells assessed as cell survival at 10 uM after 72 hrs by calcein AM assay; assay type: functional; details: LNCaP-C42B4, 72 h, read-out: Activity
[6] = AUC (0 to infinity) in NMRI mouse at 1 mg/kg, sc; details: plasma
Cytochrome P450 2D6 = Cytochrome P450 2D6 (Homo sapiens, UniProt P10635); experiment: Inhibition of CYP2D6 (unknown origin); assay type: ADME
Coagulation factor X = Coagulation factor X (Bos taurus, UniProt P00743); experiment: Inhibition of bovine plasma factor 10a using CH3OCO-D-CHA-Gly-Arg-pNA.AcoH substrate
Prothrombin = Prothrombin (Homo sapiens, UniProt P00734); experiment: Inhibition of human thrombin using Boc-Gln-Ala-Arg-7-amido-4-methyl coumarin hydrobromide
DU-145 [7] = experiment: Antitumor activity against human DU145 cells xenografted in SCID mouse assessed as tumor growth inhibition at 0.5 mg/kg, sc administered twice daily for 31 days; assay type: functional; details: DU-145, sc, 744 h, route subcutaneous, read-out: TGI
PC-3 [8] = experiment: Antiinvasion activity in human PC3 cells assessed as inhibition of FBS-induced cell invaded to lower surface at 10 uM for 3 days by matrigel assay; assay type: functional; details: PC-3, 72 h
DU-145 [9] = experiment: Cytotoxicity against human DU145 cells assessed as cell survival at 10 uM after 72 hrs by calcein AM assay; assay type: functional; details: DU-145, 72 h, read-out: Activity
Cytochrome P450 3A4 = Cytochrome P450 3A4 (Homo sapiens, UniProt P08684); experiment: Inhibition of CYP3A4 (unknown origin); assay type: ADME
PC-3 [10] = experiment: Cytotoxicity against human PC3 cells assessed as inhibition of number of colonies formed in soft agar measured on day 8; assay type: functional, cell-based; details: PC-3, 192 h
[11] = target: T1, Suppressor of tumorigenicity 14 protein (Homo sapiens, UniProt Q9Y5Y6); experiment: Inhibition of recombinant matriptase (unknown origin) using Boc-Gln-Ala-Arg-7-amido-4-methyl coumarin hydrobromide
T1 sequence (Q9Y5Y6 whole entry): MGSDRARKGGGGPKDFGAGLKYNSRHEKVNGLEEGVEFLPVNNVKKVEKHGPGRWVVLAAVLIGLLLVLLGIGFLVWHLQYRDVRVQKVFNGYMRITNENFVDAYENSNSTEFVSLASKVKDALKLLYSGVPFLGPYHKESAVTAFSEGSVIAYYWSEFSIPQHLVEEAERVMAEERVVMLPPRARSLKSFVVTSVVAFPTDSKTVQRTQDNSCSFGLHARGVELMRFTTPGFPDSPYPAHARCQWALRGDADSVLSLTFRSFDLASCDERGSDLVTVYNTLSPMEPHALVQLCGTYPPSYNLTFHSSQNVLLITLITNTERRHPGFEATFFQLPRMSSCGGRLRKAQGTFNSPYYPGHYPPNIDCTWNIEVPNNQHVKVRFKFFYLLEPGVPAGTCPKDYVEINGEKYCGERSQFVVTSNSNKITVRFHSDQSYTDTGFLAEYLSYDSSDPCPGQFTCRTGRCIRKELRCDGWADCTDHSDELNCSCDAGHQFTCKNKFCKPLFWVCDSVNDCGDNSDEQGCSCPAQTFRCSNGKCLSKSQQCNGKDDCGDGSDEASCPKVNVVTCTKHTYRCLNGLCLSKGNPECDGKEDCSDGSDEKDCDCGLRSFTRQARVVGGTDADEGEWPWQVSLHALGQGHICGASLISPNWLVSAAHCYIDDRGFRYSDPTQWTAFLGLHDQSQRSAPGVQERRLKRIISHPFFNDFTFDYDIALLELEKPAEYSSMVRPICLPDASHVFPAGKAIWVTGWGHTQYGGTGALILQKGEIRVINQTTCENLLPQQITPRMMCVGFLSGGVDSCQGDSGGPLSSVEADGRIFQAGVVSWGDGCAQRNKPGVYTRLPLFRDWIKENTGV

[12] = Metabolic stability in human liver microsomes assessed as compound remaining after 20 mins; assay type: ADME; details: read-out: Stability
Trypsin = Trypsin (Homo sapiens, UniProt P07477+P07478+P35030); experiment: Inhibition of human pancreas Trypsin using Boc-Gln-Ala-Arg-7-amido-4-methyl coumarin hydrobromide; assay type: protein assay
[13] = Aqueous solubility of the compound; assay type: physicochemical; details: buffer
[14] = Tmax in NMRI mouse at 1 mg/kg, sc; details: in vivo
[15] = Cytotoxicity against human LNCaP-C42B4 cells assessed as inhibition of number of colonies formed in soft agar measured on day 8; assay type: functional, cell-based; details: LNCaP-C42B4, 192 h
PC-3 [16] = experiment: Cytotoxicity against human PC3 cells assessed as cell survival at 10 uM after 72 hrs by calcein AM assay; assay type: functional; details: PC-3, 72 h, read-out: Activity
[17] = Antiinvasion activity in human LNCaP-C42B4 cells assessed as inhibition of FBS-induced cell invaded to lower surface at 10 uM for 3 days by matrigel assay; assay type: functional; details: LNCaP-C42B4, 72 h
Mus musculus [18] = experiment: Toxicity in SCID mouse xenografted with human DU145 cells assessed as body weight change at 0.5 mg/kg, sc administered twice daily for 31 days; assay type: organism-based, DU-145; set-up: dose 0.5 mg/kg, route subcutaneous; details: in vivo, 744 h
[19] = Cmax in NMRI mouse at 1 mg/kg, sc; details: in vivo
DU-145 [20] = experiment: Antiinvasion activity in human DU145 cells assessed as inhibition of FBS-induced cell invaded to lower surface at 10 uM for 3 days by matrigel assay; assay type: functional; details: DU-145, 72 h
Mus musculus [21] = experiment: Toxicity in SCID mouse xenografted with human DU145 cells assessed as clinical signs at 0.5 mg/kg, sc administered twice daily for 31 days; assay type: organism-based, DU-145; set-up: dose 0.5 mg/kg, route subcutaneous; details: in vivo, 744 h
Plasminogen = Plasminogen (Homo sapiens, UniProt P00747); experiment: Inhibition of human plasmin using pyroGlu-Phe-Lys-pNA.HCl
Mus musculus [22] = experiment: Toxicity in SCID mouse xenografted with human DU145 cells assessed as body weight change at 1 mg/kg, sc administered twice daily for 31 days; details: in vivo, 744 h
Mus musculus [23] = experiment: Toxicity in SCID mouse xenografted with human DU145 cells assessed as clinical signs at 1 mg/kg, sc administered twice daily for 31 days; details: in vivo, 744 h

Sequence of Cytochrome P450 2D6 (P10635 whole entry): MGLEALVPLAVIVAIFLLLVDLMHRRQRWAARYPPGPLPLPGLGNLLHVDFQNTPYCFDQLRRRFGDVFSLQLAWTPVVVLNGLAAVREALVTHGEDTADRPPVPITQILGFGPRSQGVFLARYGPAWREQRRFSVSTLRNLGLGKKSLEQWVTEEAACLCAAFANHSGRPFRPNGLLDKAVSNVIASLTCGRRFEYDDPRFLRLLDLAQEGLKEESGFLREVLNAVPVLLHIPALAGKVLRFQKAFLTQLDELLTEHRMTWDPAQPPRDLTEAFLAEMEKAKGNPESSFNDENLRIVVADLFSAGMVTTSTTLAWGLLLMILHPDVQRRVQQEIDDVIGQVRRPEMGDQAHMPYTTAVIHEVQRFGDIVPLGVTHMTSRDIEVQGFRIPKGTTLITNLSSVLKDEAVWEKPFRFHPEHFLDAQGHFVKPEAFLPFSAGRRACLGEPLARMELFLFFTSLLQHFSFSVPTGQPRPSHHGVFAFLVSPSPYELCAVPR
Sequence of Cytochrome P450 2C19 (P33261 whole entry): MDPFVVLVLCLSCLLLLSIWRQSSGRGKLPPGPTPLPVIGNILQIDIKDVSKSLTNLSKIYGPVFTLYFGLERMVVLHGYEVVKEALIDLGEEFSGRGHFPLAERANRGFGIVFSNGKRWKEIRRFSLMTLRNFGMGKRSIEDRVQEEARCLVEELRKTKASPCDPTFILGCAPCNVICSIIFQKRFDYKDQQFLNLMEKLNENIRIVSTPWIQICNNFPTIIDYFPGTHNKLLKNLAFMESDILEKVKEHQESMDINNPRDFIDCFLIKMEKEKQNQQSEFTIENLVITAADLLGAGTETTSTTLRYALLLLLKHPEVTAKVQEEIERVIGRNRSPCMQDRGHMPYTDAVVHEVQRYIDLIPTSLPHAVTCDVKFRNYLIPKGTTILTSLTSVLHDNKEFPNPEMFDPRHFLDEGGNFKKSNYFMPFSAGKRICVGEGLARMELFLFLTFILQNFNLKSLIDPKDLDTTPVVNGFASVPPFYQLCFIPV
Sequence of Cytochrome P450 2C9 (P11712 whole entry): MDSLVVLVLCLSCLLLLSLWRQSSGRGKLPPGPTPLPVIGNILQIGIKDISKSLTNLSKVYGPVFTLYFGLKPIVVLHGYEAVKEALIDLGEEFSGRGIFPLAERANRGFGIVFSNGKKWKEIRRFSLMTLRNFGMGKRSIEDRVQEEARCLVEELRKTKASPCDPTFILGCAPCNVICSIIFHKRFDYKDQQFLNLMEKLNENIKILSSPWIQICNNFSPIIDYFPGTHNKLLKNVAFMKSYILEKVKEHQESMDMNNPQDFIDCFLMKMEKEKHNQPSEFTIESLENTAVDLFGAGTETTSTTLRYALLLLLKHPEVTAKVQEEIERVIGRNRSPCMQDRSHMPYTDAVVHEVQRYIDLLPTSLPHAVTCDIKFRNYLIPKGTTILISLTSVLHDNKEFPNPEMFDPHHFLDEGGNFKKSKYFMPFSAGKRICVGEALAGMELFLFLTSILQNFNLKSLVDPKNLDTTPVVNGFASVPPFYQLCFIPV
Sequence of Cytochrome P450 3A4 (P08684 whole entry): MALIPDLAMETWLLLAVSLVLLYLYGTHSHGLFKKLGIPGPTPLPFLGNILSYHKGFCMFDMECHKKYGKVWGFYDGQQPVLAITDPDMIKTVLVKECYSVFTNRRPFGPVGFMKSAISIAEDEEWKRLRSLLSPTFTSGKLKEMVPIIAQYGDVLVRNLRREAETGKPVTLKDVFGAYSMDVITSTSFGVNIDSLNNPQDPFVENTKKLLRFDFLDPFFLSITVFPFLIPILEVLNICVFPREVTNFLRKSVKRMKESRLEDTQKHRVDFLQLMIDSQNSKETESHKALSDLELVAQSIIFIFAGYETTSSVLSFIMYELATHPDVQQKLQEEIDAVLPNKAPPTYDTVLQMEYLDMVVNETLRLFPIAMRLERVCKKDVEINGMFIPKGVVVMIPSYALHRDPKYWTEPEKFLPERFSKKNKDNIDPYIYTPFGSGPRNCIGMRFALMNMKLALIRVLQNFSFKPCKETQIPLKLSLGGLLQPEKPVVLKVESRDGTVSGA
Sequence of Coagulation factor X (P00743 41-180 limits assumed): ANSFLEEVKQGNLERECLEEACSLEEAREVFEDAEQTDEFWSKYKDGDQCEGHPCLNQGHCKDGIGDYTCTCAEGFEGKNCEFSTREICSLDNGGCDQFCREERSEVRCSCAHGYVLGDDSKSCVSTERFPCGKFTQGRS
Sequence of Coagulation factor X (P00743 234-492 limits assumed): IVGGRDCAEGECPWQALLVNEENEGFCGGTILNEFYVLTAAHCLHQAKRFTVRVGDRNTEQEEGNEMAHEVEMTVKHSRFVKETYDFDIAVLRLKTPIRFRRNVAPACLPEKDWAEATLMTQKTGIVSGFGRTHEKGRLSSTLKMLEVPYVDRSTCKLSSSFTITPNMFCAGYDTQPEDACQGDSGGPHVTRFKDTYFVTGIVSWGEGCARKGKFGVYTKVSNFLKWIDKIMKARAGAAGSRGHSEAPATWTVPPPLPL
Sequence of Plasminogen (P00747 97-580 limits assumed): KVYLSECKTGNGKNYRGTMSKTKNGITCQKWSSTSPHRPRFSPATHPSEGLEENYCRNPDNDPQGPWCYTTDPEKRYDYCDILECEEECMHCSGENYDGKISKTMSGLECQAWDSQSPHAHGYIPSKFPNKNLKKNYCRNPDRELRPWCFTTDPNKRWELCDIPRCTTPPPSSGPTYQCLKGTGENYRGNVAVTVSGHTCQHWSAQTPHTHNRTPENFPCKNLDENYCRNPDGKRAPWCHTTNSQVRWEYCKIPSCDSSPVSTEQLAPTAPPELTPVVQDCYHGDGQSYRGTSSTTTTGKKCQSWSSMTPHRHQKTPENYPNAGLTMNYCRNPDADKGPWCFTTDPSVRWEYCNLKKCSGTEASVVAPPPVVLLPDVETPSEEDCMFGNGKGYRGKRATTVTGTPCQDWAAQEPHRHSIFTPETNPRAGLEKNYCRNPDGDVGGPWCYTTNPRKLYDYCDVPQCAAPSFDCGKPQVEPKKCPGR
Sequence of Plasminogen (P00747 581-810 limits assumed): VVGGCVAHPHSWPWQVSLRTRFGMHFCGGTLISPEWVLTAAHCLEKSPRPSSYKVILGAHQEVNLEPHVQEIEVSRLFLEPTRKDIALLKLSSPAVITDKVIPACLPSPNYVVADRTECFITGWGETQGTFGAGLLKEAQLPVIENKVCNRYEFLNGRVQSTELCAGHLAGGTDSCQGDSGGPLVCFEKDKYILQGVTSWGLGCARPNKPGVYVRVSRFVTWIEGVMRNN

| Compound | remaining at 20 min [1] [%] | IC50 (Cytochrome P450 2C9) [nM] | EC50 (DU-145 [2]) [nM] | remaining at 20 min [4] [%] | IC50 (Cytochrome P450 2C19) [nM] | viability at 10 µM [5] [%] | IC50 (Cytochrome P450 2D6) [nM] | Ki (Coagulation factor X) [nM] | Ki (Prothrombin) [nM] | inhibition at 10 µM (PC-3 [8]) [%] | viability at 10 µM (DU-145 [9]) [%] | IC50 (Cytochrome P450 3A4) [nM] | EC50 (PC-3 [10]) [nM] | Ki [11] [nM] | remaining at 20 min [12] [%] | Ki (Trypsin) [nM] | EC50 [15] [nM] | viability at 10 µM (PC-3 [16]) [%] | inhibition at 10 µM [17] [%] | inhibition at 10 µM (DU-145 [20]) [%] | also measured |
| --- | --- | --- | --- | --- | --- | --- | --- | --- | --- | --- | --- | --- | --- | --- | --- | --- | --- | --- | --- | --- | --- |
| N=C(N)c1ccc(Oc2cc(NC(=O)[C@H]3CC[C@H](N)CC3)cc(Oc3ccc(C(=N)N)cc3)c2)cc1 | 91 | > 30000 | 41 | 83 | > 30000 | 90 | > 30000 | 503 | 2220 | 86 | 100 | > 30000 | 105 | 3 | 97 | 894 | 1540 | 94 | 63 | 98 | half-life [3]: 3.3 h; AUC(0-inf) [6]: 1850 ng·h/mL; inhibition in vivo at 0.5 mg/kg (DU-145 [7]): 52%; solubility [13]: 200 µM (≈ 97.3 µg/mL); Tmax [14]: 0.75 h; Activity (Mus musculus [18]): < 5%; Cmax [19]: 484 ng/mL; Activity (Mus musculus [21]): Non-toxic |
| N=C(N)c1ccc(Oc2cc(NC(=O)C3CCN(C(=O)CCN)CC3)cc(Oc3ccc(C(=N)N)cc3)c2)cc1 |  |  | 130 |  |  | 99 |  | 95 | 2680 | 37 | 98 |  | 580 | 61 |  | 541 | 1580 | 80 | 60 | 94 | Ki (Plasminogen): 2590 nM |
| N=C(N)c1ccc(Oc2cc(Oc3ccc(C(=N)N)cc3)cc(C(=O)N[C@H]3CC[C@H](N)CC3)c2)cc1 | 100 | > 30000 | 200 | 81 | > 30000 | 95 | > 30000 | 516 | 2100 | 97 | 100 | > 30000 | 48 | 10 | 85 | 1625 | 1360 | 96 | 84 | 81 | half-life [3]: 1.6 h; AUC(0-inf) [6]: 1000 ng·h/mL; solubility [13]: 194 µM (≈ 94.4 µg/mL); Tmax [14]: 0.27 h; Activity (Mus musculus [22]): < 5%; Cmax [19]: 487 ng/mL; Activity (Mus musculus [23]): Non-toxic |
| N=C(N)c1ccc(Oc2cc(Oc3ccc(C(=N)N)cc3)cc(C(=O)O[C@H]3CC[C@H](N)CC3)c2)cc1 | 34 | > 30000 | 152 | 24 | > 30000 | 95 | > 30000 | 44 | 2470 | 95 | 92 | > 30000 | 81 | 1 | 54 | 264 | 135 | 82 | 90 | 89 | solubility [13]: 182 µM (≈ 88.7 µg/mL) |
